Consider nine compounds from patent US11716992B2, “5A5B6C tricyclic spirolactone derivative, preparation method therefor and use thereof” (NANKAI UNIVERSITY, priority 2017, dated 2023).

Several values for one entry are separate records, joined by “and”; a condition that tells them apart may be missing. Identical values can stand only once. Like-named read-outs stand apart in the source and are kept apart here.

In one series the test system is Tobacco Mosaic Virus. Briefly: Anti-TMV inactivation activity on tobacco plants. It is filed as in vivo. On the set-up: concentration or dose not given beside the values. As to conditions: compound mixed with TMV solution 30 minutes, lesions checked three days later.
Series [1] concerns Apis mellifera ligustica Spin. Conditions: for Death number after 24 h / Death number after 48 h: per replicate of 10 bees.
Series [2] deals with Phytophthora infestans (Mont.) de Bary. Briefly: microbe, parasite or virus in culture. In kind it is cell-based. Conditions: Phytophthora infestans, read-out: fungicidal activity (growth inhibition rate), PI, 50 μg/mL.
The next series deals with Botrytis cinerea. Briefly: Fungicidal activity, fungicide growth rate method, BC. It is filed as cell-based. As to conditions: Botrytis cinerea, 50 μg/mL; read-out: fungicidal activity (growth inhibition rate), BC.
The subject of another series is Caenorhabditis elegans. Briefly: Insecticidal activity against Caenorhabditis elegans. It is filed as in vivo. Conditions: Caenorhabditis elegans, read-out: insecticidal activity, Caenorhabditis elegans.
Series [3] relates to Helicoverpa armigera (Hübner). Briefly: Insecticidal activity against Helicoverpa armigera (Hübner). In kind it is in vivo. As to conditions: Helicoverpa armigera, read-out: insecticidal activity, Helicoverpa armigera (Hübner).
In another series the test system is Sclerotinia sclerotiorum. Briefly: Fungicidal activity, fungicide growth rate method, SS. It is filed as cell-based. As to conditions: Sclerotinia sclerotiorum, 50 μg/mL.
The next series has as its system Ostrinia furnacalis. Briefly: Insecticidal activity against Ostrinia furnacalis. It is filed as in vivo. Conditions: Ostrinia furnacalis, read-out: insecticidal activity, Ostrinia furnacalis.
Another series concerns Pellicularia sasakii. Briefly: Fungicidal activity, fungicide growth rate method, PS. It is filed as cell-based. As to conditions: 50 μg/mL; read-out: fungicidal activity (growth inhibition rate), PS.
For series [4], the system named is Mythimna separate (Walker). Briefly: Insecticidal activity against Mythimna separate (Walker). As to conditions: Mythimna, read-out: insecticidal activity, Mythimna separate (Walker). In kind it is in vivo.
In another series the test system is Cercospora arachidicola. Briefly: Fungicidal activity, fungicide growth rate method, CA. In kind it is cell-based. Conditions: Mycosphaerella arachidis, 50 μg/mL; read-out: fungicidal activity (growth inhibition rate), CA.
The test system of another series is Physalospora piricola. Briefly: Fungicidal activity, fungicide growth rate method, PP. Conditions: 50 μg/mL; read-out: fungicidal activity (growth inhibition rate), PP. In kind it is cell-based.
A further series deals with Alternaria solani. Briefly: Fungicidal activity, fungicide growth rate method, AS. It is filed as cell-based. Conditions: Alternaria solani, 50 μg/mL; read-out: fungicidal activity (growth inhibition rate), AS.
The test system of a further series is wheat Gibberella zeae. Briefly: microbe, parasite or virus in culture. In kind it is cell-based. As to conditions: Fusarium graminearum, read-out: fungicidal activity (growth inhibition rate), GZ, 50 μg/mL.
For another series, the system named is Rhizoctonia cerealis. Briefly: Fungicidal activity, fungicide growth rate method, RC. It is filed as cell-based. As to conditions: Ceratobasidium cereale, 50 μg/mL; read-out: fungicidal activity (growth inhibition rate), RC.

For the compound `C=CC[Si](C)(C)O[C@@]12CCO[C@@]13CC[C@H]1C[C@H]3[C@H](CC=CC[Si](C)(C)O1)C2` [Zyj07-49], the “TMV inactivation (anti-TMV activity)” value in the series with Tobacco Mosaic Virus came out at 28%. Moreover, the “Death rate after 48 h (%)” value in series [1] (dosage 6.06 μg a.i./bee) and in series [1] (dosage 19.8 μg a.i./bee) was 0% each time. The “Death number after 24 h” value in [1] (dosage 6.06 μg a.i./bee) and in series [1] (dosage 19.8 μg a.i./bee) was 0 each time. In addition, the “Death number after 48 h” value in series [1] (dosage 6.06 μg a.i./bee) and in [1] (dosage 19.8 μg a.i./bee) was 0 in each case. The inhibition at 50 µg/mL is 16% in series [2], 34% in the series with Botrytis cinerea, more than 50% in the series with Sclerotinia sclerotiorum and 45% with Pellicularia sasakii. In addition, the pest or weed control at 100 µg/mL worked out at 15% with Caenorhabditis elegans, 0% in series [3], 0% in the series with Ostrinia furnacalis and 20% in series [4].

In the case of `CC(=O)O[C@@]12C[C@H]3CC=CC[C@@]1(O3)[C@@H]1CC=CC[C@@H]1C2` [Zyj07-41-2], the “TMV inactivation (anti-TMV activity)” value with Tobacco Mosaic Virus is reported as 18%. Besides, the “Death rate after 48 h (%)” value in series [1] (dosage 8.70 μg a.i./bee) and in series [1] (dosage 13.5 μg a.i./bee) was 0% each time. The “Death number after 24 h” value in series [1] (dosage 8.70 μg a.i./bee) and in series [1] (dosage 13.5 μg a.i./bee) was 0 throughout. Also, the “Death number after 48 h” value in [1] (dosage 8.70 μg a.i./bee) and in series [1] (dosage 13.5 μg a.i./bee) was 0 throughout. The inhibition at 50 µg/mL was 25% in series [2]; 34% in the series on Botrytis cinerea; more than 50% with Cercospora arachidicola; more than 50% in the series with Physalospora piricola; 14% with Alternaria solani; 41% with Pellicularia sasakii. Besides, in the series with wheat Gibberella zeae, the inhibition at 50 µg/mL was 20%. The pest or weed control at 100 µg/mL amounted to 12% in the series on Caenorhabditis elegans (100 μg/mL), 15% in [3] (100 μg/mL), 0% in the series with Ostrinia furnacalis (100 μg/mL) and 10% in series [4] (100 μg/mL).

Take `CO[C@@H]1CC(=O)[C@@]2(O)CC=CC[C@H]12` [Zyj06-111-2]: the “TMV inactivation (anti-TMV activity)” value in the series with Tobacco Mosaic Virus was 24%. The inhibition at 50 µg/mL in series [2] was 31%; in the series with Botrytis cinerea, 39%; in the series with Cercospora arachidicola it was more than 50%; with Sclerotinia sclerotiorum, 10%; with Alternaria solani, 14%; with Rhizoctonia cerealis, 0%. Besides, the inhibition at 50 µg/mL in the series with Pellicularia sasakii was found to be 0%; in the series with wheat Gibberella zeae, 47%. In addition, the pest or weed control at 100 µg/mL is more than 30% in the series on Caenorhabditis elegans (100 μg/mL), 50% in series [3] (100 μg/mL) and 40% in the series on Ostrinia furnacalis (100 μg/mL).

On to `C=CC[C@@H]1C[C@@]2(O)C[C@@H](CC=C)[C@H]3C[C@@H](O)CC[C@@]32O1` [Zyj07-68], for which the “Death rate after 48 h (%)” value was 10.0% in [1] (dosage 9.97 μg a.i./bee) and 0% in [1] (dosage 16.1 μg a.i./bee). Also, the “Death number after 24 h” value in series [1] (dosage 9.97 μg a.i./bee) and in [1] (dosage 16.1 μg a.i./bee) was 0 throughout. The results for the “Death number after 48 h” value in [1] (dosage 9.97 μg a.i./bee) and in series [1] (dosage 16.1 μg a.i./bee) were 1 and 0, respectively. In addition, the inhibition at 50 µg/mL in [2] was 13%; in the series with Botrytis cinerea, 36%; in the series with Cercospora arachidicola it was 19%; in the series with Sclerotinia sclerotiorum it was more than 50%; in the series on Physalospora piricola it was 2%; with Alternaria solani it was 3%. Besides, the values for the inhibition at 50 µg/mL in the series with Rhizoctonia cerealis, with Pellicularia sasakii and in the series on wheat Gibberella zeae were 21%, 9% and 0%, respectively. In addition, the pest or weed control at 100 µg/mL in the series with Caenorhabditis elegans (100 μg/mL) was found to be 13%; in [3] (100 μg/mL) it was 0%; in the series on Ostrinia furnacalis (100 μg/mL), 0%; in series [4] (100 μg/mL), 0%.

As to `O=C1C[C@@]2(O)CC[C@H]3CC=CC[C@@]32O1` [Zyj07-96], the “TMV inactivation (anti-TMV activity)” value in the series on Tobacco Mosaic Virus was determined as 23%. The “Death rate after 48 h (%)” value in series [1] (dosage 9.54 μg a.i./bee) and in [1] (dosage 15.5 μg a.i./bee) was 0% throughout. For the same compound, the “Death number after 24 h” value in series [1] (dosage 9.54 μg a.i./bee) and in [1] (dosage 15.5 μg a.i./bee) was 0 each time. The “Death number after 48 h” value in [1] (dosage 9.54 μg a.i./bee) and in series [1] (dosage 15.5 μg a.i./bee) was 0 in each case. Further, the inhibition at 50 µg/mL was 24% in series [2]; 25% in the series on Botrytis cinerea; more than 50% in the series with Sclerotinia sclerotiorum; more than 60% in the series on Alternaria solani; more than 60% in the series on Pellicularia sasakii; more than 50% in the series with wheat Gibberella zeae. Further, the pest or weed control at 100 µg/mL in [3] (100 μg/mL) is 15%; in the series on Ostrinia furnacalis (100 μg/mL), 10%; in series [4] (100 μg/mL), more than 30%.

Take `C=CC[C@@H]1C[C@]2(O)CC(=O)O[C@@]23C[C@H]2O[C@H]2C[C@H]13` [Zyj07-13]: the “TMV inactivation (anti-TMV activity)” value in the series with Tobacco Mosaic Virus was 11%. The inhibition at 50 µg/mL in series [2] was 0%; in the series on Botrytis cinerea, more than 50%; in the series on Cercospora arachidicola, 8%; in the series with Physalospora piricola it was 30%; with Alternaria solani, 10%; in the series with Rhizoctonia cerealis it was 43%. Further, the inhibition at 50 µg/mL in the series with Pellicularia sasakii amounted to 6%; in the series with wheat Gibberella zeae, 14%. In addition, in the series with Caenorhabditis elegans (100 μg/mL), the pest or weed control at 100 µg/mL amounted to 20%.

For the compound `CO[C@@H]1C[C@]2(O)CC(=O)O[C@@]23CC=CC[C@H]13` [Zyj06-189], the “Death rate after 48 h (%)” value in series [1] (dosage 9.77 μg a.i./bee) and in [1] (dosage 16.4 μg a.i./bee) was 0% in each case. The “Death number after 24 h” value in [1] (dosage 9.77 μg a.i./bee) and in series [1] (dosage 16.4 μg a.i./bee) was 0 each time. Besides, the “Death number after 48 h” value in [1] (dosage 9.77 μg a.i./bee) and in series [1] (dosage 16.4 μg a.i./bee) was 0 throughout. Moreover, the inhibition at 50 µg/mL in [2] is 23%; in the series on Botrytis cinerea, more than 50%; in the series on Cercospora arachidicola it was 24%; in the series with Sclerotinia sclerotiorum, 0%; with Physalospora piricola it was more than 50%; in the series on Alternaria solani, 0%. Moreover, the inhibition at 50 µg/mL was found to be 29% in the series on Rhizoctonia cerealis, 23% in the series on Pellicularia sasakii and 13% in the series with wheat Gibberella zeae. Moreover, the pest or weed control at 100 µg/mL with Caenorhabditis elegans (100 μg/mL) stood at 8%; in [3] (100 μg/mL), 0%; with Ostrinia furnacalis (100 μg/mL) it was 0%; in [4] (100 μg/mL), 0%.

Regarding `C=CC[C@@H]1C[C@@]2(OC(C)=O)C[C@@H](CC=C)[C@H]3C[C@H]4O[C@H]4C[C@@]32O1` [Zyj07-67-1], the “TMV inactivation (anti-TMV activity)” value in the series with Tobacco Mosaic Virus came to 7%. Further, the inhibition at 50 µg/mL in series [2] is 32%; in the series with Botrytis cinerea it was more than 50%; in the series on Cercospora arachidicola, 14%; in the series on Physalospora piricola, 31%; in the series on Alternaria solani, 0%; with Rhizoctonia cerealis it was 0%. For the same compound, the inhibition at 50 µg/mL in the series on Pellicularia sasakii was 18%; with wheat Gibberella zeae it was 23%. The pest or weed control at 100 µg/mL in series [3] (100 μg/mL) amounted to 10%; in the series with Ostrinia furnacalis (100 μg/mL) it was 5%; in [4] (100 μg/mL), 20%.

With `C=CC[C@@H]1C[C@]2(O)CCO[C@@]23C[C@H](O)CC[C@H]13` [Zyj07-32], in the series on Tobacco Mosaic Virus, the “TMV inactivation (anti-TMV activity)” value is 9%. The results for the “Death rate after 48 h (%)” value in series [1] (dosage 2.73 μg a.i./bee) and in series [1] (dosage 10.0 μg a.i./bee) were 10.0% and 5.0%, respectively. The “Death number after 24 h” value is 0 and 2 in series [1] (dosage 2.73 μg a.i./bee); 0 in [1] (dosage 10.0 μg a.i./bee). Also, the “Death number after 48 h” value in series [1] (dosage 2.73 μg a.i./bee) is 0 and 2; in series [1] (dosage 10.0 μg a.i./bee), 1 and 0. The inhibition at 50 µg/mL in [2] was more than 60%; in the series on Botrytis cinerea it was 23%; in the series on Cercospora arachidicola, more than 50%; with Alternaria solani, more than 60%; with Rhizoctonia cerealis, 39%; with Pellicularia sasakii, 16%. The inhibition at 50 µg/mL in the series on wheat Gibberella zeae came to 33%. The pest or weed control at 100 µg/mL with Caenorhabditis elegans (100 μg/mL) came to 20%; in series [3] (100 μg/mL), 0%; in the series on Ostrinia furnacalis (100 μg/mL), 0%; in series [4] (100 μg/mL) it was 0%.
